Patent US20110039721A1, “METHOD FOR PREDICTION ABOUT CARCINOGENICITY OF SUBSTANCE IN RODENT” (Chemicals Evaluation and Research Institute, priority 2007, published 2011)
Like-named read-outs stand apart in the source and are kept apart here.

Columns and labels:
[1] = classification of the substance (M+/M−); cited from earlier work
liver = details: cited from earlier work
rodent = details: classification of the substance (C+/C−); cited from earlier work
[2] = system: mRNA expressed from the genes (A) to (D) in rat liver; assay: Behavior of genes (mRNA expression level, oligo-DNA microarray) in rat liver after 28-day oral administration; format: in vivo; details: for Behavior of gene caused by administration of chemical substance, Gene No. 4846 / Behavior of gene caused by administration of chemical substance, Gene No. 2026 / Behavior of gene caused by administration of chemical substance, Gene No. 4218 / Behavior of gene caused by administration of chemical substance, Gene No. 6182 / Behavior of gene caused by administration of chemical substance, Gene No. 5600: gene group (A); for Behavior of gene caused by administration of chemical substance, Gene No. 4846: Unigene No. Rn.144554; for Behavior of gene caused by administration of chemical substance, Gene No. 2026 / Behavior of gene caused by administration of chemical substance, Gene No. 4218: Unigene No. Rn.167075; for Behavior of gene caused by administration of chemical substance, Gene No. 6182: Unigene No. Rn.5834; for Behavior of gene caused by administration of chemical substance, Gene No. 5600: Unigene No. Rn.9836; for Behavior of gene caused by administration of chemical substance, Gene No. 1494 / Behavior of gene caused by administration of chemical substance, Gene No. 2045 / Behavior of gene caused by administration of chemical substance, Gene No. 2203: gene group (B); for Behavior of gene caused by administration of chemical substance, Gene No. 1494: Unigene No. Rn.1430; for Behavior of gene caused by administration of chemical substance, Gene No. 2045: Unigene No. Rn.19329; for Behavior of gene caused by administration of chemical substance, Gene No. 2203: Unigene No. Rn.21240; for Behavior of gene caused by administration of chemical substance, Gene No. 533 / Behavior of gene caused by administration of chemical substance, Gene No. 725 / Behavior of gene caused by administration of chemical substance, Gene No. 1163 / Behavior of gene caused by administration of chemical substance, Gene No. 4973 / Behavior of gene caused by administration of chemical substance, Gene No. 4095 / Behavior of gene caused by administration of chemical substance, Gene No. 1334 / Behavior of gene caused by administration of chemical substance, Gene No. 6620 / Behavior of gene caused by administration of chemical substance, Gene No. 6303 / Behavior of gene caused by administration of chemical substance, Gene No. 5878 / Behavior of gene caused by administration of chemical substance, Gene No. 1131 / Behavior of gene caused by administration of chemical substance, Gene No. 1562 / Behavior of gene caused by administration of chemical substance, Gene No. 1741 / Behavior of gene caused by administration of chemical substance, Gene No. 893 / Behavior of gene caused by administration of chemical substance, Gene No. 6026 / Behavior of gene caused by administration of chemical substance, Gene No. 154 / Behavior of gene caused by administration of chemical substance, Gene No. 1993 / Behavior of gene caused by administration of chemical substance, Gene No. 813 / Behavior of gene caused by administration of chemical substance, Gene No. 2494 / Behavior of gene caused by administration of chemical substance, Gene No. 2546 / Behavior of gene caused by administration of chemical substance, Gene No. 3776 / Behavior of gene caused by administration of chemical substance, Gene No. 3929 / Behavior of gene caused by administration of chemical substance, Gene No. 1119 / Behavior of gene caused by administration of chemical substance, Gene No. 6742 / Behavior of gene caused by administration of chemical substance, Gene No. 5634: gene group (C); for Behavior of gene caused by administration of chemical substance, Gene No. 533: Unigene No. Rn.106184; for Behavior of gene caused by administration of chemical substance, Gene No. 725: Unigene No. Rn.108075; for Behavior of gene caused by administration of chemical substance, Gene No. 1163: Unigene No. Rn.11766; for Behavior of gene caused by administration of chemical substance, Gene No. 4973: Unigene No. Rn.118529; for Behavior of gene caused by administration of chemical substance, Gene No. 4095: Unigene No. Rn.119024; for Behavior of gene caused by administration of chemical substance, Gene No. 1334 / Behavior of gene caused by administration of chemical substance, Gene No. 6620: Unigene No. Rn.120914; for Behavior of gene caused by administration of chemical substance, Gene No. 6303: Unigene No. Rn.123063; for Behavior of gene caused by administration of chemical substance, Gene No. 5878: Unigene No. Rn.143213; for Behavior of gene caused by administration of chemical substance, Gene No. 1131: Unigene No. Rn.144946; for Behavior of gene caused by administration of chemical substance, Gene No. 1562: Unigene No. Rn.14744; for Behavior of gene caused by administration of chemical substance, Gene No. 1741: Unigene No. Rn.1647; for Behavior of gene caused by administration of chemical substance, Gene No. 893: Unigene No. Rn.164817; for Behavior of gene caused by administration of chemical substance, Gene No. 6026: Unigene No. Rn.167685; for Behavior of gene caused by administration of chemical substance, Gene No. 154: Unigene No. Rn.185941; for Behavior of gene caused by administration of chemical substance, Gene No. 1993: Unigene No. Rn.18728; for Behavior of gene caused by administration of chemical substance, Gene No. 813: Unigene No. Rn.201760; for Behavior of gene caused by administration of chemical substance, Gene No. 2494: Unigene No. Rn.23969; for Behavior of gene caused by administration of chemical substance, Gene No. 2546: Unigene No. Rn.24561; for Behavior of gene caused by administration of chemical substance, Gene No. 3776: Unigene No. Rn.43232; for Behavior of gene caused by administration of chemical substance, Gene No. 3929: Unigene No. Rn.4620; for Behavior of gene caused by administration of chemical substance, Gene No. 1119: Unigene No. Rn.9757; for Behavior of gene caused by administration of chemical substance, Gene No. 6742: Unigene No. Rn.9779; for Behavior of gene caused by administration of chemical substance, Gene No. 5634: Unigene No. Rn.9862; for Behavior of gene caused by administration of chemical substance, Gene No. 5726: gene group (D), Unigene No. Rn.9939
Procedure, shortened: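 Groups of four male F344 SPF rats aged 5 weeks are gavaged once a day for 28 days with test chemical in solvent or with solvent alone at equal volume. Total RNA comes from liver taken on day 28. Fold change of 1.5 or 1/1.5 versus control, directionally consistent, defines significance.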

SMILES	Mutagenicity by Ames test [1]	Carcinogenicity (rodent)	Behavior of gene caused by administration of chemical substance, Gene No. 4846 [2]	Behavior of gene caused by administration of chemical substance, Gene No. 2026 [2]	Behavior of gene caused by administration of chemical substance, Gene No. 4218 [2]	Behavior of gene caused by administration of chemical substance, Gene No. 6182 [2]	Behavior of gene caused by administration of chemical substance, Gene No. 5600 [2]	Behavior of gene caused by administration of chemical substance, Gene No. 1494 [2]	Behavior of gene caused by administration of chemical substance, Gene No. 2045 [2]	Behavior of gene caused by administration of chemical substance, Gene No. 2203 [2]	Behavior of gene caused by administration of chemical substance, Gene No. 533 [2]	Behavior of gene caused by administration of chemical substance, Gene No. 725 [2]	Behavior of gene caused by administration of chemical substance, Gene No. 1163 [2]	Behavior of gene caused by administration of chemical substance, Gene No. 4973 [2]	Behavior of gene caused by administration of chemical substance, Gene No. 4095 [2]	Behavior of gene caused by administration of chemical substance, Gene No. 1334 [2]	Behavior of gene caused by administration of chemical substance, Gene No. 6620 [2]	Behavior of gene caused by administration of chemical substance, Gene No. 6303 [2]	Behavior of gene caused by administration of chemical substance, Gene No. 5878 [2]	Behavior of gene caused by administration of chemical substance, Gene No. 1131 [2]	also measured
O=C1CCCCCN1 [TS074, Caprolactam]	M−	C−	−	−	−	+	−	−	+	−	−	+	−	+	+	−	−	−	−	−	Liver carcinogenicity (liver; in vivo): Cr−; Behavior of gene caused by administration of chemical substance, Gene No. 1562 [2]: −; Behavior of gene caused by administration of chemical substance, Gene No. 1741 [2]: +; Behavior of gene caused by administration of chemical substance, Gene No. 893 [2]: −; Behavior of gene caused by administration of chemical substance, Gene No. 6026 [2]: −; Behavior of gene caused by administration of chemical substance, Gene No. 154 [2]: −; Behavior of gene caused by administration of chemical substance, Gene No. 1993 [2]: −; Behavior of gene caused by administration of chemical substance, Gene No. 813 [2]: −; Behavior of gene caused by administration of chemical substance, Gene No. 2494 [2]: −; Behavior of gene caused by administration of chemical substance, Gene No. 2546 [2]: −; Behavior of gene caused by administration of chemical substance, Gene No. 3776 [2]: +; Behavior of gene caused by administration of chemical substance, Gene No. 3929 [2]: +; Behavior of gene caused by administration of chemical substance, Gene No. 1119 [2]: −; Behavior of gene caused by administration of chemical substance, Gene No. 6742 [2]: −; Behavior of gene caused by administration of chemical substance, Gene No. 5634 [2]: +; Behavior of gene caused by administration of chemical substance, Gene No. 5726 [2]: −
Cc1ccc(N)cc1Cl [TS080, 3-Chloro-p-toluidine]	M−	C−	+	+	+	+	+	+	−	+	+	+	−	+	+	−	−	−	−	−	Liver carcinogenicity (liver; classification of the substance (Cr+/Cr−)): Cr−; Behavior of gene caused by administration of chemical substance, Gene No. 1562 [2]: −; Behavior of gene caused by administration of chemical substance, Gene No. 1741 [2]: −; Behavior of gene caused by administration of chemical substance, Gene No. 893 [2]: +; Behavior of gene caused by administration of chemical substance, Gene No. 6026 [2]: −; Behavior of gene caused by administration of chemical substance, Gene No. 154 [2]: +; Behavior of gene caused by administration of chemical substance, Gene No. 1993 [2]: −; Behavior of gene caused by administration of chemical substance, Gene No. 813 [2]: +; Behavior of gene caused by administration of chemical substance, Gene No. 2494 [2]: −; Behavior of gene caused by administration of chemical substance, Gene No. 2546 [2]: +; Behavior of gene caused by administration of chemical substance, Gene No. 3776 [2]: −; Behavior of gene caused by administration of chemical substance, Gene No. 3929 [2]: −; Behavior of gene caused by administration of chemical substance, Gene No. 1119 [2]: −; Behavior of gene caused by administration of chemical substance, Gene No. 6742 [2]: −; Behavior of gene caused by administration of chemical substance, Gene No. 5634 [2]: −; Behavior of gene caused by administration of chemical substance, Gene No. 5726 [2]: +
